Here are results for 11 molecules from patent US12409199B2, “Methods of treating endometriosis and other noncancer gynecological disorders with hemp extract” (Ecofibre USA Inc., priority 2021, dated 2025).

In data set [1] the test system is organoids derived from ovarian cancer tissue. Put plainly: Impact of pH on % viable organoids (FIG. 9).
The conditions of data set [2]: oral; cited from earlier work.
For data set [3] the following is noted: cited from earlier work.
The next data set concerns non-transformed cells. Conditions: cited from earlier work.
For data set [4], the system named is endometriosis based organoids. In words: % viability of endometriosis based organoids (FIG. 6A/6B). Type of data set: cell-based, human. As for the experimental part:
After narrowing down the range in which 50% of endometrial cancer organoids were inhibited from forming in the presence of BSHE, we then turned to other cannabis extracts comprising CBE to determine their efficacy in inhibiting cancerous organoid formation. […] These cannabis extracts were then tested against endometrial based organoids, which confirm the efficacy across the different cells, both in the endometrial cancer based organoids as well as in the endometriosis based organoids.
FIG. 6B then tests the same endometrial based organoids with a CBDA isolate. Here, slightly higher concentrations were required to reach below 10% viability. […] However, these studies confirm that the efficacy of the CE comprising CBD was conserved over different grades of endometrial cancer and also to endometriosis based organoids.

In data set [5] the test system is patient derived endometrial cancer cells. Put plainly: Patient-derived xenograft (PDX) mice, endometrial cancer tumor volume (FIG. 7). Type of data set: in vivo. Conditions: for decrease in tumor volume compared to starting size: day 14 (6 doses). The protocol: Mouse studies are useful to take cell-based applications and confirm their efficacy in a whole animal system. Furthermore, the mice allow for testing of systemic delivery of the drugs. […] The mice tests were performed according to the protocol in the method section, below.
Generally, EC stem cells from the same patients that participated in the organoid studies for endometrial cancer, were injected into the mice, and allowed to grow. After tumors reached a certain size, the mice were either injected (3 times/week) with the extract-delivery vehicle or with the particular cannabis extract. After a certain amount of time elapsed, tumor size was measured. The details regarding patient-derived xenograft methodology and experimental protocol are provided in the Methods section.
The % change is an average number taken from tumor volumes of three mice compared to the starting average tumor volume on day 0 of treatment. Change can either be positive (tumor increases in size) or negative (tumor decreases in size).
Human patient cells from endometrial cancer were injected subcutaneously into female NOD/SCID gamma mice after resuspending in 100 μL solution. […] Tumor size was measured before treatment, followed by twice a week measurements. All treatment group mice were kept alive for up to 10 weeks after drug injection or until the tumor volume grows bigger than 2500 mm^3.
Tumor size was measured along with body weight at the time of tissue collection. All tumor tissues were removed carefully from the euthanized mouse body. Tumor tissue samples were kept for histology, proteomics, genomics, and other downstream processing. All downstream processing was completed following NCI Patient-Derived Models Repository SOPs.
(In general: In xenograft studies the graft and the host belong to different species.)

For data set [6], the system named is stage IV chemoresistant endometrial cancer with metastatic disease. Put plainly: Treatment of a patient with stage IV chemoresistant endometrial cancer, PET/CT follow up. The text has this:
Soon after the experiments detailed above a person came to us. They were initially diagnosed with endometriosis, and later diagnosed with endometrial cancer after presenting with significant pain and discomfort. They had already undergone a total hysterectomy and bilateral salpingo-oophorectomy followed by five rounds of chemotherapy. Each of the first five rounds of chemotherapy was a combined chemotherapy with Paclitaxil/Carboplatin.
See, Tables 1 and 2, below. […] As such, […] began standard protocol GemCap treatment in combination with a regime of 30 mg of BSHE twice daily via oral mucosal delivery and 75 mg of FSHE once daily via intravaginal delivery.

The test system of data set [7] is patient derived organoids. In words: Death of patient derived organoids, % of cells that died compared to control (Table 4). Type of data set: cell-based, human. The protocol:
In addition to the agents listed above, several other drugs were tested to see if they influenced organoid growth. […] This is consistent with the patient's actual lack of response to treatment with paclitaxel.

Data set [8] has as its system organoids crafted from the patient's endometrial cancer. In words: Response of organoids crafted from the patient's endometrial cancer to alternative chemotherapies and BSHE. Type of data set: cell-based, human. The text has this:
See, Tables 1 and 2, below.

Where [9] appears, read: before cannabis extract treatment.

Where two headings read alike, the source gives them in different places.

Turning to `C=C(C)[C@@H]1CCC(C)=C[C@H]1c1c(O)cc(CCCCC)cc1O` [CBD isolate, cannabidiol], the “efficacy compared with native pH” value in data set [1] (10 μg/mL, pH 8) is “virtually no change”. Further, the viability at 10 µg/mL was less than 1% in data set [1] (pH 4) and roughly 12% in [1] (read-out: % of viable organoids). The “delayed maximum plasma concentration (time) in some individuals” value in data set [2] was “up to 6 hours”. Also, in [3] (WHO 41st Expert Committee on Drug Dependence), the “potential for abuse or dependence” value was “no potential for abuse and no potential to produce dependence”. Besides, the well tolerated dose result in data set [3] (chronic use, humans) was “up to 1,500 mg/day”. Also, the “effect on physiological parameters (heart rate, blood pressure and body temperature), gastrointestinal transit, psychomotor or psychological functions” value in [3] (in vivo) is on record as “does not affect”. Moreover, in the data set on non-transformed cells, the toxicity entry is on record as “non-toxic”. In data set [4] (tested at 0, 1, 2, 3, 4, 5, 7, 10 μg/mL, FIG. 6A), the “lowest dose at which the organoids are completely treated” value worked out at 5 µg/mL. In data set [5] (30 mg/kg injected 3 times/week), the “tumor response over the 21 days of treatment” value was “not as responsive”. In [5] (30 mg/kg), the “decrease in tumor volume compared to starting size” value is on record as “less than 50%”.

Regarding “Paclitaxil/Carboplatin [reference compound]”, the “clinical outcome of earlier therapy” value in data set [6] (setting [9]) is reported as “ineffective”.

For 5-Fluorouaracil/Capecitabine, the “% Cell Death” value in [7] was found to be 61%.

As for `O=P1(N(CCCl)CCCl)NCCCO1` (centres unmarked) [Cyclosphosphamide], in data set [7], the “% Cell Death” value came out at 32%.

Take `CCN1CCN(Cc2ccc(Nc3ncc(F)c(-c4cc(F)c5nc(C)n(C(C)C)c5c4)n3)nc2)CC1` [Abemaciclib, reference compound]: in data set [6] (human, in vivo), the “adverse effects of earlier therapy” value was “severe adverse effects”.

Consider `N.N.O=C([O-])C1(C(=O)[O-])CCC1.[Pt+2]` [Carboplatin], for which, in [7], the “% Cell Death” value amounted to 30%.

Take `N.N.[Cl][Pt][Cl]` [Cisplatin]: the “% Cell Death” value in [7] stood at 36%.

For Atezolizumab, in [6] (setting [9]), the “adverse effects of earlier therapy” value is given as “severe adverse effects” and the “clinical outcome of earlier therapy” value is “failed”.

Regarding Bleomycin, the “% Cell Death” value in [7] is reported as 53%.

For gemcitabine/capecitabine [GemCap], the “response of the patient's organoids” value in data set [8] is given as “partial response”.

`C=C(C)[C@@H]1CCC(C)=C[C@H]1c1c(O)cc(CCCCC)c(C(=O)O)c1O` [CBDA isolate, cannabidiolic acid]: in [4] (50 μg/mL, FIG. 6B), the viability outcome is on record as “complete resolution”. This molecule also registered a viability at 15 µg/mL in data set [4] (Homo sapiens, 15 μg/mL, FIG. 6B) of less than 50%. The viability at 25 µg/mL in data set [4] (Homo sapiens, 25 μg/mL, FIG. 6B, <10% is considered 95-100% cell death) was less than 10%. Moreover, the “increase in average tumor volume vs day 0” value in data set [5] (30 mg/kg injected 3 times/week, day 7 (3 doses)) is listed as “greater than 30%”. Further, the “decrease in average tumor volume vs day 0” value in data set [5] (30 mg/kg injected 3 times/week, day 10) is listed as “greater than 30%”. Besides, the “overall decrease in average tumor volume in three days” value in data set [5] (30 mg/kg, day 7 to day 10) is “greater than 60%”. Moreover, in [5] (30 mg/kg), the “decrease in tumor volume compared to starting size” value was 70%. Moreover, the “decrease in average tumor volume” value in data set [5] (30 mg/kg, day 21 (9 doses)) is recorded as roughly 100%.
